Measurements reported in patent US20220235065A1 (Epizyme, Inc., priority 2016, published 2022).
Where a name gives a salt, the structure may show the parent alone.

How the values were obtained:
[1] = test system: H3K9me2 in MDA-MB-231 cells; assay: MDA-MB-231 H3K9me2 in-cell western assay; type: cell-based; conditions: Homo sapiens, read-out: EHMT2 ICW (IC50 μM)
Summary of the method: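 MDA-MB-231 cells (3,000/well) exposed to compound for two consecutive 48 h periods at 37 °C, then fixed and stained for H3K9me2, with DRAQ5 as DNA stain and infrared read at 700/800 nm. Percent inhibition was set between DMSO and UNC0638 control wells. IC50 came from triplicate dose–response fits with a four-parameter model, top 100%, bottom 0%.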

[2] = molecular target: T1, EHMT1 (Homo sapiens, UniProt Q9H9B1); assay: EHMT1 PEP (EHMT1 peptide enzyme assay); type: biochemical; conditions: peptide substrate enzyme assay
T1 sequence (Q9H9B1 1-1298): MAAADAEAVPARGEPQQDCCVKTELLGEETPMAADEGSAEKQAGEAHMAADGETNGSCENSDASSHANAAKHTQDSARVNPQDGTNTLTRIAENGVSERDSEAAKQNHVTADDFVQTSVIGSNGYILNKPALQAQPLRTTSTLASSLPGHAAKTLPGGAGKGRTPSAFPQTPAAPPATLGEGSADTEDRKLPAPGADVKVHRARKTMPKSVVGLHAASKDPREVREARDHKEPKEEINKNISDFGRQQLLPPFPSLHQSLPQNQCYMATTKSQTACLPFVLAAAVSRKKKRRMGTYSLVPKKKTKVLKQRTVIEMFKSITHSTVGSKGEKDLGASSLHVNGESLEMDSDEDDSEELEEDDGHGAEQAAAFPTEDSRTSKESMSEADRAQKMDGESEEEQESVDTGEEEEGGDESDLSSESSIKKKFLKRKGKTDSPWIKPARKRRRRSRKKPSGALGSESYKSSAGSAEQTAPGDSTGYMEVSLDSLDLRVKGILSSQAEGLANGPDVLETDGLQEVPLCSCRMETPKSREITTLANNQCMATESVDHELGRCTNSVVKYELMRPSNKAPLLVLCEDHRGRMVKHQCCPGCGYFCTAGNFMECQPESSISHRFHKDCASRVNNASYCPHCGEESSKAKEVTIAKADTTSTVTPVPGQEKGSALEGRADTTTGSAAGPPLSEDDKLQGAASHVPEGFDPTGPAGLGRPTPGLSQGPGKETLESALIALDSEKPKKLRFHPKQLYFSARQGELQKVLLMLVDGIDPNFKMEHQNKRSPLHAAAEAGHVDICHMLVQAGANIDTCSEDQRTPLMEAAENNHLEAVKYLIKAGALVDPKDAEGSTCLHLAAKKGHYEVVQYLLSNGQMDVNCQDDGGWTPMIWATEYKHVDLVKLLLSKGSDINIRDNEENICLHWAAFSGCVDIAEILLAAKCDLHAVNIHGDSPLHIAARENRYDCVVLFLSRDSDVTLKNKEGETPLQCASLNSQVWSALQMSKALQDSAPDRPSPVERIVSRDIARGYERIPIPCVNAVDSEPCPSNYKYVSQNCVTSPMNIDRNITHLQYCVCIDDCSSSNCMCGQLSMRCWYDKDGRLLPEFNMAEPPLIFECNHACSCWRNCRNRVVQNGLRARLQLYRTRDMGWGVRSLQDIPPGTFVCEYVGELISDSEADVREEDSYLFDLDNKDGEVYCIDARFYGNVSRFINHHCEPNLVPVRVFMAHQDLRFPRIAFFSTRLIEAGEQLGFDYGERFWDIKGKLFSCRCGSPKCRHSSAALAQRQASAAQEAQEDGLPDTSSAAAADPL

| Structure (SMILES) | IC50 [1] [µM] | IC50 [2] [µM] |
| --- | --- | --- |
| CNc1cc(C)nc(Nc2ccc(OC)c(-n3cc4c(n3)CNCC4)c2)n1 [Compound 22, 2-N-(4-methoxy-3-[2H,4H,5H,6H,7H-pyrazolo[3,4-c]pyridin-2-yl]phenyl)-4-N,6-dimethylpyrimidine-2,4-diamine hydrochloride] | > 10 | 1 to 10 |
| CNc1cc(C)nc(Nc2ccc(OC)c(-n3ncc4c3CCCN4)c2)n1 [Compound 32] | > 10 | > 10 |
| CNc1cc(C)nc(Nc2ccc(Cl)c(C(=O)Nc3cnccn3)c2)n1 [Compound 251] | 1 to 10 | 0.1 to 1 |
| CCc1ccc(Nc2nc(C)cc(NC)n2)cc1-c1cc2ccncc2[nH]1 [Compound 269] | 0.1 to 1 | < 0.1 |
| CNc1cc(C)nc(Nc2ccc(OC)c(-c3nnc4n3CCN(C)C4)c2)n1 [Compound 31] | > 10 | > 10 |
| CNc1cc(C)nc(Nc2ccc(OC)c(-c3nc4cnccn4n3)c2)n1 [Compound 38] | > 10 | 1 to 10 |
| CNCc1cnn(-c2c(OC)ccc(Nc3nc(C)cc(NC)n3)c2F)c1 [Compound 317, N2-(2-fluoro-4-methoxy-3-(4-((methylamino)methyl)-1H-pyrazol-1-yl)phenyl)-N4,6-dimethylpyrimidine-2,4-diamine] | < 0.1 | < 0.1 |
| CNc1cc(C)nc(Nc2ccc(OC)c(-c3cc4[nH]ccc4c(CN)n3)c2)n1 [Compound 296] | 1 to 10 | < 0.1 |
| CNCc1cc(-c2cc(Nc3nc(C)cc(NC)n3)ccc2OC)no1 [Compound 331] | 0.1 to 1 | < 0.1 |
| CNCc1cn(-c2cc(Nc3nc(C)cc(NC)n3)ccc2OC)nc1F [Compound 323] | 0.1 to 1 | < 0.1 |
| CNc1cc(C)nc(Nc2ccc(OC)c(-c3nccc(NC)n3)c2)n1 [Compound 306] | > 10 | 1 to 10 |
| CNc1cc(C)nc(Nc2ccc(OC)c(-n3cccn3)c2)n1 [Compound 15, 2-N-[4-methoxy-3-(1H-pyrazol-1-yl)phenyl]-4-N,6-dimethylpyrimidine-2,4-diamine; trifluoroacetic acid] | > 10 | > 10 |
| CNc1cc(C)nc(Nc2ccc(OC)c(-c3c(C)nc4n3CCNC4)c2)n1 [Compound 30] | > 10 | > 10 |
| CNC1=Nc2cc(-c3cnc4cc[nH]c4c3)c(OC)cc2C12CCC2 [Compound 294] | 1 to 10 | < 0.1 |
| CNc1cc(C)nc(Nc2ccc(OC)c(-c3nnc4n3CCNC4)c2)n1 [Compound 21] | > 10 | > 10 |
| CNc1cc(C)nc(Nc2ccc(C)c(C(=O)Nc3cscn3)c2)n1 [Compound 280] | > 10 | 1 to 10 |
| CNc1cc(C)nc(Nc2ccc(Cl)c(C(=O)Nc3ncccn3)c2)n1 [Compound 258] | 1 to 10 | 0.1 to 1 |
| CNCc1cnn(-c2c(Cl)ccc(Nc3nc(C)cc(NC)n3)c2Cl)c1 [Compound 327] | < 0.1 | < 0.1 |
| CNc1cc(C)nc(Nc2ccc(Cl)c(C(=O)Nc3ccncn3)c2)n1 [Compound 259] | > 10 | 1 to 10 |
| CNc1cc(C)nc(Nc2ccc(OC)c(-c3cc4[nH]ccc4c(CNC(C)=O)n3)c2)n1 [Compound 293] | 1 to 10 | < 0.1 |
| CNc1cc(C)nc(Nc2ccc(OC)c(-n3cc(C4CCCN4)cn3)c2)n1 (stereo not drawn) [Compound 321] | < 0.1 | < 0.1 |
| CNCc1cnn(-c2c(F)ccc(Nc3nc(C)cc(NC)n3)c2Cl)c1 [Compound 329] | < 0.1 | < 0.1 |
| CNCc1cnn(-c2c(F)ccc(Nc3nc(C)cc(NC)n3)c2F)c1 [Compound 307] | 0.1 to 1 | < 0.1 |
| CNCc1cnn(-c2c(F)ccc(Nc3nc(C)cc(NC)n3)c2OC)c1 [Compound 318] | 0.1 to 1 | 0.1 to 1 |
| CNc1cc(C)nc(Nc2cnc(C)c(-c3cc4ccncc4[nH]3)c2)n1 [Compound 311] | > 10 | > 10 |

The next lines start with the values.

| IC50 [1] [µM] | IC50 [2] [µM] | Structure (SMILES) |
| --- | --- | --- |
| 1 to 10 | 0.1 to 1 | CNCc1ccnc(-c2cc(Nc3nc(C)cc(NC)n3)ccc2OC)c1 [Compound 313] |
| > 10 | > 10 | CCc1ccc(Nc2nc(C)cc(NC)n2)cc1C(=O)Nc1cccnc1 [Compound 244] |
| < 0.1 | < 0.1 | CNCc1cnn(-c2cc(Nc3nc(C)cc(NC)n3)ccc2Br)c1 [Compound 319] |
| > 10 | 1 to 10 | COc1cc(NC2CCNCC2)ccc1-c1[nH]c2cnccc2c1C [Compound 310] |
| > 10 | 1 to 10 | CNc1cc(C)nc(Nc2ccc(OC)c(-n3ncc4ccncc43)c2)n1 [Compound 36] |
| 0.1 to 1 | < 0.1 | CNc1cc(C)nc(Nc2ccc(C)c(-c3cc4[nH]ccc4cn3)c2)n1 [Compound 256] |
| 0.1 to 1 | < 0.1 | CNc1cc(C)nc(Nc2ccc(Cl)c(-c3cc4[nH]ccc4cn3)c2)n1 [Compound 255] |
| > 10 | 1 to 10 | COc1cc(NC2CCNC2)ccc1-c1[nH]c2cnccc2c1C (stereo not drawn) [Compound 305] |
| 0.1 to 1 | < 0.1 | CNc1nc2cc(-c3cc4ccncc4[nH]3)c(C)cc2n1C [Compound 278] |
| < 0.1 | < 0.1 | CNc1cc(C)nc(Nc2ccc(C)c(-n3cc4cnccc4n3)c2)n1 [Compound 282] |
| 1 to 10 | 0.1 to 1 | CNc1nc2cc(-c3cnc4cc[nH]c4c3)c(OC)cc2n1C [Compound 295] |
| < 0.1 | < 0.1 | CNCc1cnn(-c2c(Cl)ccc(Nc3nc(C)cc(NC)n3)c2F)c1 [Compound 328] |
| < 0.1 | < 0.1 | CNC1=Nc2cc(-n3cc(C4CCCN4)cn3)c(Cl)cc2C12CCC2 (stereo not drawn) [Compound 326] |
| 0.1 to 1 | < 0.1 | CNC1=Nc2cc(-n3cc(C4CCCN4)cn3)c(OC)cc2C12CCC2 (stereo not drawn) [Compound 322] |
| < 0.1 | < 0.1 | CNCc1cnn(-c2cc(Nc3nc(C)cc(NC)n3)ccc2OC)c1 [Compound 285] |
| > 10 | 1 to 10 | CNc1cc(C)nc(Nc2ccc(OC)c(-n3nccc3CN)c2)n1 [Compound 24] |
| < 0.1 | < 0.1 | CNc1cc(C)nc(Nc2ccc(OC)c(-c3cc4[nH]cc(C)c4cn3)c2)n1 [Compound 386] |
| > 10 | 0.1 to 1 | CNC1=Nc2cc(-c3cc4[nH]ccc4c(C(N)=O)n3)c(OC)cc2C12CCC2 [Compound 308] |
| 0.1 to 1 | < 0.1 | CNCc1cnn(-c2cc(Nc3nc(C)cc(NC)n3)ccc2C(F)(F)F)c1 [Compound 325] |
| > 10 | > 10 | CNc1cc(C)nc(Nc2ccc(C)c(C(=O)Nc3cn(C)cn3)c2)n1 [Compound 302] |
| 1 to 10 | 0.1 to 1 | CNc1cc(C)nc(Nc2ccc(C)c(C(=O)Nc3cnccn3)c2)n1 [Compound 287] |
| 1 to 10 | 1 to 10 | CNc1cc(C)nc(Nc2ccc(OC)c(-c3[nH]c4cnccc4c3C#N)c2)n1 [Compound 291] |
| > 10 | 0.1 to 1 | CNc1cc(C)nc(Nc2ccc(Cl)c(-c3cc4c(cn3)CC(=O)N4)c2)n1 [Compound 260] |
